Legend:
[1] = test system: OT-1 T cells; assay: adoptive transfer of UA-treated OT-1 T cells, engraftment; assay type: in vivo, Rag1^−/− mice; conditions: seven days after transfer of T cells stimulated 48 h with UA (25 μM) vs DMSO
Excerpt: Adoptive cell transfer (ACT) represents the infusion of antigen-specific leukocytes with direct antitumor activity, yet identification, selection and expansion of lymphocyte subsets harboring optimal antitumor qualities remains one of the most crucial challenges (Rosenberg and Restifo, 2015). ACT benefits especially from minimally differentiated cells due to their improved survival and long-term potential to generate unexhausted effector cells (Luca Gattinoni et al; Mo et al., 2021; Roberto et al., 2015). In particular, CD8^+ T cells restricted in a stem-like state have been associated with enhanced tumor suppressive properties upon adoptive cell transfer (Enrico Lugli et al; Verma et al., 2021). […] The inventors cultured T cells from OT-1 donor mice (FIG. 3A) for 48 hours in the presence of UA or vehicle control, followed by adoptive transfer into immunodeficient Rag1^−/− mice. […] Moreover, consistent with an improved memory response, animals receiving UA-pretreated T cells contained less Tim3^HiPD1^Hi terminally exhausted CD8^+ T cells in the TME (FIG. 3I). Thus, UA augments immune-mediated antitumor memory upon adoptive cell transfer.
For adoptive cell transfer transfer, purified splenic T cell from OT1 mice were isolated and activated using aCD3/aCD28 stimulation beads for 48 h. […] Tumor growth was assessed as described above. […]

[2] = test system: Pink1^−/− T cells; assay: aCD3/aCD28 stimulation of Pink1-/- T cells in presence of UA; assay type: cell-based, mice
Excerpt: UA activates mitophagy in myocytes and hippocampal neurons via a Pink1/Parkin mediated stress-response (D'Amico et al., 2021). […] Moreover, UA stabilized Parkin protein expression (FIG. 4G). To functionally confirm the dependence of UA induced TSCM formation on Pink1/Parkin mediated mitophagy, the inventors activated Pink1^−/− T cells in the presence or absence of UA. Loss of Pink1 prevented the UA-induced lysosome formation as well as the decrease in mitochondrial content (FIG. 4H, I).
Splenic murine T cells were isolated from mice aged 6-20 weeks by negative selection with EasySep mouse T cell isolation kit (Stem cell) according to the manufacturer's instructions. To monitor T cell proliferation, purified T cells were loaded with CellTrace Violet (C34557 ThermoFisher Scientific). T cell activation was initiated using αCD3/CD28 activation beads (11456D; ThermoFisher Scientific) at a ratio of 25 μl dynabeads per 0.5×10^6 T-cells. Cells were activated with 25-50 μM Urolithin A (Tocris) or DMSO in T cell activation Medium (RPMI (ThermoFisher Scientific) 10% FBS (South America origin), 10 mM Hepes (Sigma), 1× Non-Essential Amino Acid, 1 mM Sodium Pyruvate, 50 μM B-Mercaptoethanol, 100 U/ml penicillin, 100 μg/ml streptomycin and 2 mM Glutamax (ThermoFisher Scientific) for the indicated durations. In selected experiments, cells were stimulated in the presence of inhibitors, namely TCF1i (ICG-001; SelleckChem; 10 μM) and PGC-1αi (SR-18292, Sigma-Aldrich; 10 μm,). For subsequent analysis, activating beads were magnetically removed prior antibody staining. For human T cells, peripheral blood mononuclear cells were purified with a Ficoll-Paque (GE healthcare) gradient. T cells were enriched with EasySep Human T Cell Isolation Kit (StemCell) and activated with dynabead Human T-Activator CD3/CD28 for T Cell Expansion and Activation Kit (11131D; ThermoFisher Scientific), similar to murine T cell stimulation.
For flow cytometric analysis of mitochondria and lysosomes 500 μl of Mitotracker Red (200 nM; ThermoFisher) or Lysotracker Red DND-99 (75 nM; ThermoFisher) were applied followed by surface staining. To study changes in mitochondrial membrane potential, Mitoprobe TMRM kit (ThermoFisher) was used according to the manufacturer's instructions. Cell proliferation was assessed by CellTrace Violet (Invitrogen, C34557) at a concentration of 5 μM according to manufacturer's instructions. For human samples, cells were stained as described above with Fixable Viability Dye-eF780, αCD95-BV421 (DX2; 562616), αCD62L-PE (DREG-56; 555544), αCCR7-AF700 (150503; 561143), αCD45RO-APC (UCHL; 559865), αCD45RA-FITC (HI100; 555488), αCD8-PE-CF594 (RPA-T8; 562282) and αCD4-BV786 (OKT4; 566806) from BD.

Q: For O=c1oc2cc(O)ccc2c2ccc(O)cc12 [UA, Urolithin A], which “number of engrafted (splenic) CD8+ T cells” value [1] is on record?
A: significantly higher

Q: And the UA-induced lysosome formation ([2]; Loss of Pink1, 6 h, UA 50 μM)?
A: prevented

Q: And the “UA-induced decrease in mitochondrial content” value ([2]; Loss of Pink1, 48 h, UA 50 μM)?
A: prevented

Q: And the “cytoplasmic expression of Pgam5” value ([2]; Pink1-/- CD8+ T cells upon UA exposure)?
A: lack of cytoplasmic expression

Q: What about the PGC-1a ([2]; Pink1-/- CD8+ T cells, 48 h, UA 50 μM) of the same compound?
A: failed to enhance

Q: What about the TSCM phenotype ([2]; Pink1-/- CD8+ T cells, 48 h, UA 25 and 50 μM) of the same compound?
A: failed to exhibit a TSCM phenotype

Q: And the “TCF-1 in CD44-CD62L+CD8+ T cells” value ([2]; Pink1-/-, 48 h, UA 50 μM)?
A: less
